Consider two compounds from patent US20040077689A1, “Abc expression promoters” (priority 2001, published 2004).

Where a name gives a salt, the structure may show the parent alone.

Common to all, as to format: cell-based
Experiment [1] concerns LXRα mRNA. Briefly: Expression modulatory activity for LXRα mRNA in human monocyte-derived cells. The conditions noted are these: THP-1 cells, test compound 1 μM, 24 hours; Not added = 100.0; Mean ± SEM (n = 3). As to the method: (§1) To a PMA (phorbol 12-myristate 13-acetate, 400 ng/mL)-FBS (fetal bovine serum, 10%)-containing RPMI medium was suspended human monocyte -derived THP-1 cells (ATCC) (7×10^5 cell/mL), and the obtained suspension was dispensed into a 24-well plate (0.5 mL/well) and cultured for 3 days. After removing the medium, a FBS (fetal bovine serum, 10%)—containing RPMI1640 medium into which a test compound (1 μM) had been added was added to the 24-well plate and the plate was cultured for 24 hours. Whole RNA was extracted from the cultured cells using RNeasy Mini Kit (QIAGEN), and then the expression amounts of LXRα mRNA, ABCA1 mRNA, ABCG1 mRNA and Human acidic ribosomal protein (huPO; 36B4) mRNA as an internal standard were measured by real-time quantitative RT-PCR according to TaqMan PCR method using a TaqMan EZ RT-PCR kit (Applied Biosystems). […]
(§2) The expression amount of Human acidic ribosomal protein (huPO; 36B4) mRNA was measured using Pre-Developed TaqMan Assay Reagents Endogenous Control (Human Acidic ribosomal protein (huPO)) (Applied Biosystems), and VIC was used as a reporter dye and TAMRA was used as a quencher dye. […]

Experiment [2] deals with ABCA1 mRNA. The experiment in a line: Expression modulatory activity for ABCA1 mRNA in human monocyte-derived cells. Particulars: THP-1 cells, test compound 1 μM, 24 hours; Not added = 100.0; Mean ± SEM (n = 3). The method, then:
as §1, §2

Experiment [3] has as its system ABCG1 mRNA. Briefly: Expression modulatory activity for ABCG1 mRNA in human monocyte-derived cells. The conditions noted are these: THP-1 cells, test compound 1 μM, 24 hours; Not added = 100.0; Mean ± SEM (n = 3). As to the method: as §1, §2
The subject of experiment [4] is LXRα mRNA. Briefly: Expression modulatory activity for LXRα mRNA in mouse macrophages. Particulars: C57BL6/J mouse peritoneal macrophages, test compound 1 μM, 24 hours; Not added = 100.0; Mean ± SEM (n = 3). The method, then: (§3) A C57BL6/J mouse (male, 10 weeks old) was intraperitoneally administered with 1 mL of a 5% thioglycolic acid medium (Wako Pure Chemical Industries, Ltd.). After 4 days, intraperitoneal cells were collected with phosphate-buffered saline (PBS), and macrophages were separated in a 3% BSA-containing DMEM medium as cells adhesive to a plate. After incubation of the macrophages overnight in a DMEM medium containing 10% human lipoprotein-removed serum, the medium was replaced with a DMEM medium containing a test compound (1 μM) and 10% fetal bovine serum and cultured for 24 hours.
(§4) After the medium was removed, whole RNA was extracted from the obtained macrophage using RNeasy Mini Kit (QIAGEN) and then the expression amounts of the LXRαmRNA, ABCG1mRNA and mouse acidic ribosomal protein (36B4) mRNA as an internal standard were measured by real-time quantitative RT-PCR according to TaqMan PCR method using a TaqMan EZ RT-PCR kit (Applied Biosystems). […]
(§5) Real-time quantitative PCR was carried out according to the similar manner to Experimental Example 1.
(§6) Based on the ratio of the expression amount of the LXRαmRNA and ABCG1mRNA relative to the internal standard (expression amount of mouse acidic ribosomal protein mRNA), the expression modulatory activities for the LXRα mRNA and ABCG1 mRNA of the test compound were evaluated.

Experiment [5] has as its system ABCG1 mRNA. The experiment in a line: Expression modulatory activity for ABCG1 mRNA in mouse macrophages. Particulars: C57BL6/J mouse peritoneal macrophages, test compound 1 μM, 24 hours; Not added = 100.0; Mean ± SEM (n = 3). The method, then:
as §3, §4, §5, §6

Experiment [6] relates to human monocyte-derived THP-1 cells. The experiment in a line: Foaming-suppressant activity in human monocyte-derived cells (intracellular lipid content). The conditions noted are these: for Intracellular lipid content FC (free cholesterol) / Intracellular lipid content TC (total cholesterol) / Intracellular lipid content CE (cholesteryl ester): test compound 1 μM, rabbit β-VLDL loading 2 days; for Intracellular lipid content FC (free cholesterol): Not added = 80.8 ± 1.2, Mean ± SEM (n = 3); for Intracellular lipid content TC (total cholesterol): Not added = 114.8 ± 1.8, Mean ± SEM (n = 3); for Intracellular lipid content CE (cholesteryl ester): calculated as TC minus FC, Not added = 34.0 ± 2.3, Mean ± SEM (n = 3). The method, then:
In a RPMI1640 medium containing a test compound (1 μM), PMA (phorbol 12-myristate 13-acetate, 400 ng/ml) and 10% fetal bovine serum was suspended human monocyte-derived THP-1 cells (purchased from Dainippon Pharmaceutical Co., Ltd.). The obtained suspension was dispensed into a 12-well plate (7.2×10^5 cells) and was cultured for 3 days. The obtained cell was further cultured in a RPMI1640 medium containing the test compound and 0.2 mM oleic acid-0.2% bovine serum albumin complex and rabbit β-VLDL (200 μg cholesterol/mL) for 2 days, and then the total lipids in the cells were extracted with a mixed solution of n-hexane/isopropanol (3:2). The amounts of the total cholesterol (TC) and free cholesterol (FC) in the extract were measured with a enzyme method [using Cholesterol E-Test Wako (trade name, Wako Pure Chemical Industries, Ltd.)], and the amount of cholesteryl ester (CE) was calculated by the difference between the two cholesterol amounts. The intracellular lipid content was then evaluated by dividing the amounts of these lipids by the amount of cell protein (measured using BCA assay kit (Pierce)). In the Table, TC represents total cholesterol, FC represents free cholesterol and CE represents cholesteryl ester.

Experiment [7] concerns ACAT-1 mRNA. Briefly: Expression modulatory activity for ACAT-1 mRNA in human monocyte-derived cells. Particulars: THP-1 cells, test compound 1 μM, 2 days + 1 day; Not added = 100.0; Mean ± SEM (n = 3). As to the method: (§7) In a RPMI medium containing a test compound (1 μM), PMA (phorbol 12-myristate 13-acetate, 400 ng/mL)-FBS (fetal bovine serum, 10%) was suspended human monocyte-derived THP-1 cells (purchased from Dainippon Pharmaceutical Co., Ltd.) (7.2×10^5 cell/mL). The obtained suspension was dispensed into a 24 well plate (0.5 mL/well) and cultured for 2 days (3.6×10^5 cells). After the medium was removed, a RPMI medium containing the test compound (1 μM), PMA(400 ng/mL)-FBS(10%) was added to the plate and it was cultured further for 1 day.
(§8) After the medium was removed, whole RNA was extracted from the obtained cells using RN easy Mini Kit (QIAGEN), and the expression amounts of ACAT-1 mRNA, CEH mRNA and human acidic ribosomal protein (huPO; 36B4) mRNA as an internal standard were measured by real-time quantitative RT-PCR according to TaqMan PCR method using a TaqMan EZ RT-PCR kit (Applied Biosystems).
In the above mentioned method, for the measurement of the expression amount of the ACAT-1mRNA, oligo DNAs represented by
5′-[…]-3′ (SEQ ID NO: 19),
5′-[…]-3′ (SEQ ID NO: 20) and […]
(§9) The expression amount of human acidic ribosomal protein (huPO; 36B4) mRNA was measured according to the method similar to Experimental Example 1. Real-time quantitative RT-PCR was carried out similarly to Experimental Example 1. […]

The subject of experiment [8] is CEH mRNA. Briefly: Expression modulatory activity for CEH mRNA in human monocyte-derived cells. Particulars: THP-1 cells, test compound 1 μM, 2 days + 1 day; Not added = 100.0; Mean ± SEM (n = 3). As to the method: as §7, §8
Furthermore, for the measurement of the expression amount of the CEH mRNA, oligo DNAs represented by
5′-AGCCCTTGGCTGAGCAAA-3′ (SEQ ID NO: 22),
5′-GTCGCAGGCAGTGAACCAT-3′ (SEQ ID NO: 23) and
5′-[…]-3′ (SEQ ID NO: 24) […]
as §9

For `Cc1oc(-c2ccccc2)nc1COc1ccc(CO/N=C(\CCC(=O)O)c2ccccc2)cc1` [Compound (7), E-4-[4-(5-methyl-2-phenyl-4-oxazolylmethoxy)benzyloxyimino]-4-phenylbutyric acid], the “Expression amount of mRNA (Relative ratio % to internal standard) LXRα” value in experiment [1] worked out at 160.1 ± 9.0%. In experiment [2], the “Expression amount of mRNA (Relative ratio % to internal standard) ABCA1” value amounted to 113.5 ± 5.5%. In addition, the “Expression amount of mRNA (Relative ratio % to internal standard) ABCG1” value in experiment [3] amounted to 265.5 ± 22.0%. In experiment [4], the “Expression amount of mRNA (Relative ratio % to internal standard) LXRα” value came to 173.0 ± 9.9%. Moreover, the “Expression amount of mRNA (Relative ratio % to internal standard) ABCG1” value in experiment [5] is 159.1 ± 6.1%. The foaming-suppressant activity result in experiment [6] (conclusion based on the decrease in the amount of cholesteryl ester, 1 μM) is “have foaming-suppressant activity”. Moreover, in experiment [6], the “Intracellular lipid content FC (free cholesterol)” value worked out at 72.0 ± 1.3 μg/mg cell protein, the “Intracellular lipid content TC (total cholesterol)” value came out at 95.8 ± 1.4 μg/mg cell protein and the “Intracellular lipid content CE (cholesteryl ester)” value was 23.7 ± 1.9 μg/mg cell protein. Also, the “Expression amount of mRNA (Relative ratio % to internal standard) ACAT-1” value in experiment [7] is 66.1 ± 1.5%. Besides, in experiment [8], the “Expression amount of mRNA (Relative ratio % to internal standard) CEH” value was found to be 159.4 ± 1.9%.

Consider `CCc1ccc(CCOc2ccc(CC3SC(=O)NC3=O)cc2)nc1` (stereo not drawn) [Pioglitazone hydrochloride, reference compound], for which the “Expression amount of mRNA (Relative ratio % to internal standard) LXRα” value in experiment [1] is on record as 165.7 ± 4.6%. Further, the “Expression amount of mRNA (Relative ratio % to internal standard) ABCA1” value in experiment [2] came to 108.2 ± 3.5%. Also, the “Expression amount of mRNA (Relative ratio % to internal standard) ABCG1” value in experiment [3] was 252.0 ± 9.2%. The “Expression amount of mRNA (Relative ratio % to internal standard) LXRα” value in experiment [4] is listed as 145.3 ± 17.9%. Besides, in experiment [5], the “Expression amount of mRNA (Relative ratio % to internal standard) ABCG1” value is 195.2 ± 23.1%. In experiment [6], the “Intracellular lipid content FC (free cholesterol)” value is on record as 72.7 ± 0.4 μg/mg cell protein, the “Intracellular lipid content TC (total cholesterol)” value turned out to be 100.3 ± 0.3 μg/mg cell protein and the “Intracellular lipid content CE (cholesteryl ester)” value is listed as 27.6 ± 0.5 μg/mg cell protein. Moreover, the “Expression amount of mRNA (Relative ratio % to internal standard) ACAT-1” value in experiment [7] was found to be 65.8 ± 1.9%. Also, the “Expression amount of mRNA (Relative ratio % to internal standard) CEH” value in experiment [8] amounted to 148.6 ± 9.2%.
